The test system of series [1] is ERK1/2(Thr202/Tyr204) phosphorylation (MEK-dependent) in A375 cells. In words: Cellular Phospho-p44/42 MAPK (Erk1/2) (Thr202/Tyr204) Assay. It is filed as cell-based. The settings on record: Homo sapiens, A-375, 1-hour incubation, pERK1/2 (Thr202/Tyr204) In-Cell Western normalized to GAPDH. The method in brief:
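A375 cells exposed 1 h to 10-point 1:3 dilutions (top 20–1 μM, 0.5% DMSO), then fixed and stained for pERK1/2 (Thr202/Tyr204) by In-Cell Western. Signal normalized to GAPDH per well; DMSO and 1 μM reference inhibitor define 0 and 100% inhibition.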

The target in the next series is T1, P-gp (MDR1) (Homo sapiens, UniProt P08183).
T1 construct: expressed in transfected cells; host or cells: LLC-PK1 (porcine kidney) cells transfected with MDR1
Description: Efflux ratio in MDR1 transfected LLC-PK1 cells. It is filed as in vitro ADME. The settings on record: pig, Papp(B−A)/Papp(A−B). The gist of the method: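 LLC-PK1 cells transfected with MDR1, test article at 1 μM (1% organic), transport measured A→B and B→A over 2 h at 37° C. Monolayer integrity checked with lucifer yellow, compound quantified by LC-MS/MS. Efflux ratio = Papp(B−A)/Papp(A−B).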

T1 sequence (P08183 whole entry): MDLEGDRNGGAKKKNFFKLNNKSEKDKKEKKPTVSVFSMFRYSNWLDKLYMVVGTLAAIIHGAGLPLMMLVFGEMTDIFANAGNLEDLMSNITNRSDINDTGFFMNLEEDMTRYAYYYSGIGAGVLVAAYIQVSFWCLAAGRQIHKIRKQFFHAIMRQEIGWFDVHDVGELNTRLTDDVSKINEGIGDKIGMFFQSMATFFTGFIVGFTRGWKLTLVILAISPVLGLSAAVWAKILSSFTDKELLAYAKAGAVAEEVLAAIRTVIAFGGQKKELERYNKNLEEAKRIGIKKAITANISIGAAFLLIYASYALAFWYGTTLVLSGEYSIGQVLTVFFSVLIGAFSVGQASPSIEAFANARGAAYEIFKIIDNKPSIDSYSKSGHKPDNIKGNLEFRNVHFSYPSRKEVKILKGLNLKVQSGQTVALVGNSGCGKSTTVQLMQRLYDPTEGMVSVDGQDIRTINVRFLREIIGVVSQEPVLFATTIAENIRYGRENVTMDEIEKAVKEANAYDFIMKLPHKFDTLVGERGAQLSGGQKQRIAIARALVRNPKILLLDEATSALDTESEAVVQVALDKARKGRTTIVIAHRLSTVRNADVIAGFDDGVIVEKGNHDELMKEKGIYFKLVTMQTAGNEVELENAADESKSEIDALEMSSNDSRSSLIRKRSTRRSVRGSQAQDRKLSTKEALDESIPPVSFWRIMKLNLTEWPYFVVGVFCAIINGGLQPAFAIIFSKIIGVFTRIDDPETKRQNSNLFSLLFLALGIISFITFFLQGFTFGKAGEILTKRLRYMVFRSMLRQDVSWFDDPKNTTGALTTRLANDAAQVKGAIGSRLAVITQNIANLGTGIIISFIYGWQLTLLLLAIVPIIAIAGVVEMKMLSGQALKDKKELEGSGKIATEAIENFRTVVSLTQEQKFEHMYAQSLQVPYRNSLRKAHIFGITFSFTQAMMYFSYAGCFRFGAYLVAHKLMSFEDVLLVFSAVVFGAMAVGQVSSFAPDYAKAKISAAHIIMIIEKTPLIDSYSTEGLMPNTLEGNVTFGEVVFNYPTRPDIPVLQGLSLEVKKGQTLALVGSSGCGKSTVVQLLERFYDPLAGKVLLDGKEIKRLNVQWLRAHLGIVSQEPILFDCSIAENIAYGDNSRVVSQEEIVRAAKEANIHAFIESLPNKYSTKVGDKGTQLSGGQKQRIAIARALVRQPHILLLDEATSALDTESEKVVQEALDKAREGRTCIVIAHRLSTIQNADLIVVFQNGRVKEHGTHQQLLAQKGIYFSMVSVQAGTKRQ

Turning to `Cn1c(Nc2ccc(OC(F)F)cc2F)c2c(cc1=O)CCN(OCCO)C2=O` [Example 22, 8-((4-(difluoromethoxy)-2-fluorophenyl)amino)-2-(2-hydroxyethoxy)-7-methyl-3,4-dihydro-2,7-naphthyridine-1,6(2H,7H)-dione], it took 21 nM to reach half-maximal inhibition in series [1] (IC50). Further, the efflux ratio (usually the permeability from basolateral to apical divided by that in the opposite direction, in the common usage) at 2 h, 1 μM at P-gp (MDR1) was determined as 6.2.
On the same counts, the results for `Cc1c2c(c(Nc3ccc(Br)cc3F)n(C)c1=O)C(=O)N(OCCO)CC2` [Example 36, 8-((4-bromo-2-fluorophenyl)amino)-2-(2-hydroxyethoxy)-5,7-dimethyl-3,4-dihydro-2,7-naphthyridine-1,6(2H,7H)-dione] are 30 nM and 2.9.
Take `Cn1c(Nc2ccc(I)cc2F)c2c(cc1=O)CCN(OCCO)C2=O` [Example 8, 8-((2-fluoro-4-iodophenol)amino)-2-(2-hydroxyethoxy)-7-methyl-3,4-dihydro-2,7-naphthyridine-1,6(2H,7H)-dione]: the concentration for half-maximal inhibition (IC50) (usually the concentration at which inhibition is half-maximal) in series [1] worked out at 1 nM. Also, the efflux ratio at 2 h, 1 μM at P-gp (MDR1) came out at 7.1.
`CSc1ccc(Nc2c3c(cc(=O)n2C)CCN(OCCO)C3=O)c(F)c1` [Example 6, 8-((2-fluoro-4-(methylthio)phenyl)amino)-2-(2-hydroxyethoxy)-7-methyl-3,4-dihydro-2,7-naphthyridine-1,6(2H,7H)-dione]: in series [1], the half-maximal inhibitory concentration (IC50) is 8 nM. Besides, at P-gp (MDR1), the efflux ratio at 2 h, 1 μM came to 3.4.
The corresponding values for `Cn1c(Nc2ccc(Br)cc2F)c2c(cc1=O)CCN(OCCO)C2=O` [Example 7, 8-((4-bromo-2-fluorophenyl)amino)-2-(2-hydroxyethoxy)-7-methyl-3,4-dihydro-2,7-naphthyridine-1,6(2H,7H)-dione] are 23 nM and 5.4.
On the same counts, the results for `CCc1ccc(Nc2c3c(cc(=O)n2C)CCN(OCCO)C3=O)c(F)c1` [Example 14, 8-((4-ethyl-2-fluorophenyl)amino)-2-(2-hydroxyethoxy)-7-methyl-3,4-dihydro-2,7-naphthyridine-1,6(2H,7H)-dione] are 15 nM and 2.7.

Values taken from patent US11802127B2, “3,4-dihydro-2,7-naphthyridine-1,6(2H,7H)-diones as MEK inhibitors” (Pfizer Inc., priority 2021, dated 2023).
